Records with an inconclusive call do not appear.
Test system: CD8F1 mice, subcutaneous mammary adenocarcinoma, T/C%
Test: NCI In Vivo Anticancer Drug Screen. Data for tumor model Mammary Adenocarcinoma CD8F1 (subcutaneous) in CD8F1
Settings: higher = larger tumour
How it was run: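 Mice carrying transplanted tumors received test compound, and survival or tumor size was recorded. Each value is the treated-group measurement divided by the corresponding measurement in vehicle-dosed controls.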

[1] = endpoint: median tumor weight change, dose: 250.0 mg/kg/injection, schedule: Q01DX001 (ip), vehicle: Klucel (hydroxypropylcellulose) (HPC)

CN(C)c1ccc(C(=C2C=CC(=[N+](C)C)C=C2)c2ccc(N(C)C)cc2)cc1 (tested in a mixture with another compound)
T/C (endpoint: median tumor weight change, dose: 2.5 mg/kg/injection, schedule: Q01DX001 (ip), vehicle: saline with Tween-80): 75 % of control | T/C (endpoint: median tumor weight change, dose: 5.0 mg/kg/injection, schedule: Q01DX001 (ip), vehicle: saline with Tween-80): 77 % of control

CCCCCC(=O)O[C@]1(C(C)=O)CC[C@H]2[C@@H]3CCC4=CC(=O)CC[C@]4(C)[C@H]3CC[C@@]21C
T/C (endpoint: median tumor weight (est.), dose: 12.5 mg/kg/injection, schedule: Q07DX005 (ip), vehicle: Klucel (hydroxypropylcellulose) (HPC)): 95 % of control | T/C (endpoint: median tumor weight (est.), dose: 25.0 mg/kg/injection, schedule: Q07DX005 (ip), vehicle: Klucel (hydroxypropylcellulose) (HPC)): 90 % of control | T/C (endpoint: median tumor weight (est.), dose: 50.0 mg/kg/injection, schedule: Q07DX005 (ip), vehicle: Klucel (hydroxypropylcellulose) (HPC)): 101 % of control | T/C (endpoint: median tumor weight (est.), dose: 100.0 mg/kg/injection, schedule: Q07DX005 (ip), vehicle: Klucel (hydroxypropylcellulose) (HPC)): 92 % of control | T/C (endpoint: median tumor weight (est.), dose: 200.0 mg/kg/injection, schedule: Q07DX005 (ip), vehicle: Klucel (hydroxypropylcellulose) (HPC)): 49 % of control | T/C (endpoint: median tumor weight (est.), dose: 400.0 mg/kg/injection, schedule: Q07DX005 (ip), vehicle: Klucel (hydroxypropylcellulose) (HPC)): 77 % of control

CN=C(NC#N)NCCSCc1nc[nH]c1C
T/C [1]: 57 % of control

NCCCC(N)(C(=O)O)C(F)F (stereo not drawn)
T/C (endpoint: median tumor weight change, dose: 125.0 mg/kg/injection, schedule: Q01DX001 (ip), vehicle: distilled water + alcohol): 29 % of control | T/C (endpoint: median tumor weight change, dose: 250.0 mg/kg/injection, schedule: Q01DX001 (ip), vehicle: distilled water + alcohol): 51 % of control | T/C (endpoint: median tumor weight change, dose: 500.0 mg/kg/injection, schedule: Q01DX001 (ip), vehicle: distilled water + alcohol): 64 % of control | T/C (endpoint: median tumor weight change, dose: 1000.0 mg/kg/injection, schedule: Q01DX001 (ip), vehicle: distilled water + alcohol): 36 % of control | T/C (endpoint: median tumor weight change, dose: 2000.0 mg/kg/injection, schedule: Q01DX001 (ip), vehicle: distilled water + alcohol): 72 % of control

Nc1cc2[nH]cnc2c(=O)[nH]1
T/C (endpoint: mean tumor weight, dose: 20.0 mg/kg/injection, schedule: Q07DX006 (ip), vehicle: saline): 83 % of control | T/C (endpoint: mean tumor weight, dose: 40.0 mg/kg/injection, schedule: Q07DX006 (ip), vehicle: saline): 50 % of control | T/C (endpoint: mean tumor weight, dose: 80.0 mg/kg/injection, schedule: Q07DX006 (ip), vehicle: saline): 76 % of control | T/C (endpoint: median tumor weight (est.), dose: 12.5 mg/kg/injection, schedule: Q07DX005 (ip), vehicle: suspension in saline): 56 % of control | T/C (endpoint: median tumor weight (est.), dose: 25.0 mg/kg/injection, schedule: Q07DX005 (ip), vehicle: suspension in saline): 79 % of control | T/C (endpoint: median tumor weight (est.), dose: 50.0 mg/kg/injection, schedule: Q07DX005 (ip), vehicle: suspension in saline): 56 % of control | T/C (endpoint: median tumor weight (est.), dose: 100.0 mg/kg/injection, schedule: Q07DX005 (ip), vehicle: suspension in saline): 80 % of control | T/C (endpoint: median tumor weight (est.), dose: 200.0 mg/kg/injection, schedule: Q07DX005 (ip), vehicle: suspension in saline): 64 % of control

CCCCCCCCNc1cc2c3c(c1)CCCN3CCC2
T/C (endpoint: median tumor weight (est.), dose: 0.75 mg/kg/injection, schedule: Q07DX005 (ip), vehicle: Klucel (hydroxypropylcellulose) (HPC)): 88 % of control | T/C (endpoint: median tumor weight (est.), dose: 1.5 mg/kg/injection, schedule: Q07DX005 (ip), vehicle: Klucel (hydroxypropylcellulose) (HPC)): 87 % of control | T/C (endpoint: median tumor weight (est.), dose: 3.0 mg/kg/injection, schedule: Q07DX005 (ip), vehicle: Klucel (hydroxypropylcellulose) (HPC)): 81 % of control | T/C (endpoint: median tumor weight (est.), dose: 6.0 mg/kg/injection, schedule: Q07DX005 (ip), vehicle: Klucel (hydroxypropylcellulose) (HPC)): 103 % of control

c1cc(OCC2CO2)ccc1OCC1CO1 (stereo not drawn)
T/C (endpoint: median tumor weight change, dose: 125.0 mg/kg/injection, schedule: Q01DX001 (ip), vehicle: Klucel (hydroxypropylcellulose) (HPC)): 92 % of control | T/C [1]: 113 % of control

C/C=C/c1cc2n(c1)C(=O)c1cc(OC3OC(C)C(NC)C(C)(O)C3O)c(C)c(O)c1NC2O (stereo not drawn)
T/C (endpoint: median tumor weight (est.), dose: 1.0 micrograms/kg/injection, schedule: Q07DX005 (ip), vehicle: saline): 60 % of control

CN1CCN(CN2C(=O)C3C4C=CC(C3C2=O)C2C3C(=O)N(CN5CCN(C)CC5)C(=O)C3C42)CC1 (stereo not drawn)
T/C (endpoint: median tumor weight change, dose: 21.6 mg/kg/injection, schedule: Q01DX005 (ip), vehicle: water): 98 % of control | T/C (endpoint: median tumor weight change, dose: 24.8 mg/kg/injection, schedule: Q01DX005 (ip), vehicle: water): 84 % of control | T/C (endpoint: median tumor weight change, dose: 36.0 mg/kg/injection, schedule: Q01DX005 (ip), vehicle: water): 70 % of control | T/C (endpoint: median tumor weight change, dose: 41.4 mg/kg/injection, schedule: Q01DX005 (ip), vehicle: water): 25 % of control | T/C (endpoint: median tumor weight change, dose: 60.0 mg/kg/injection, schedule: Q01DX005 (ip), vehicle: water): 54 % of control | T/C (endpoint: median tumor weight change, dose: 69.0 mg/kg/injection, schedule: Q01DX005 (ip), vehicle: water): 23 % of control | T/C (endpoint: median tumor weight change, dose: 100.0 mg/kg/injection, schedule: Q01DX005 (ip), vehicle: water): 21 % of control | T/C (endpoint: median tumor weight change, dose: 108.0 mg/kg/injection, schedule: Q01DX001 (ip), vehicle: water): 33 % of control | T/C (endpoint: median tumor weight change, dose: 123.9 mg/kg/injection, schedule: Q01DX001 (ip), vehicle: water): 33 % of control
